Laboratory results taken from patent publication US20220233743A1, “WOUND CLOSURE ENHANCEMENT METHODS AND MATERIALS VIA MANIPULATION OR AUGMENTATION OF LIPIN-1” (Board of Supervisors of Louisiana State University and …, priority 2019, published 2022).

System: BMDMs
Assay: OCR in response to AC with and without etomoxir, Seahorse
Format: cell-based, mouse
Conditions: for OCR in response to AC with pretreatment of etomoxir: 40 μM etomoxir 15 min, then AC 4:1
Method: Thymocytes (Jurkats) were subjected to UV light for 20 min in a 10-cm dish in sterile PBS. Cells were collected, and media was changed to D10 media followed by a 2-h incubation at 37° C. to allow for cells to become apoptotic. Cells were collected and centrifuged at 400×g for 5 min. Cells were resuspended in 2×10^−6 M PKH26 for 3 min. Staining was stopped by adding equivalent volumes of FBS.
BMDMs collected from lipin-1^mEnzyKO, lipin-1^mKO, and littermate control mice were seeded at a density of 150,000 cells per well on XF24 cell culture microplates and allowed to incubate for 4 h. Experiments were conducted in XF assay medium containing 25 mM glucose, 2 mM 1-glutamine, and 1 mM sodium pyruvate and analyzed using a Seahorse XFe 24 extracellular flux analyzer (Agilent Technologies). Where indicated, the following were injected: ATP-synthesis inhibitor oligomycin (Oligo; 1 μM), carbonyl cyanide 4-(trifluoromethoxy)phenylhydrazone (FCCP) (2 μM) to uncouple ATP synthesis, rotenone (100 nM) to block complex I, and antimycin A (1 μM) (Sigma-Aldrich) to block complex III. Oxygen consumption rate (OCR) was analyzed using Wave Desktop software (Agilent Technologies).
The inventors have shown that lipin-1 is required for increased OCR in response to free fatty acids, but the inventors wanted to know if lipin-1 regulates β-oxidation in response to AC during efferocytosis. BMDMs from WT, lipin-1^mEnzyKO, and lipin-1^mKO mice were either pretreated with or without etomoxir to prevent fatty acid transport into the mitochondria followed by the addition of AC to the macrophages at an AC/BMDM ratio of 4:1. AC were incubated with BMDMs for 30 min prior to the start of Seahorse analysis. […] Etomoxir treatment of unstimulated (no AC) WT, lipin-1 EKO, and lipin-1 KO macrophages allowed the inventors to determine basal lipid use.

For `CCOC(=O)[C@@]1(CCCCCCOc2ccc(Cl)cc2)CO1` [etomoxir], the “OCR in response to AC with pretreatment of etomoxir” value (“OCR in response to AC” below) (WT macrophages) was “significant reduction”, the “OCR in response to AC” value (lipin-1 EKO macrophages) was “significant reduction” and the “OCR in response to AC” value (lipin-1 KO macrophages) was “no significant difference in OCR”. The “OCR with etomoxir alone (basal lipid use)” value (“OCR with etomoxir alone” for short) (unstimulated (no AC) WT macrophages) was “significant reduction in OCR”, the “OCR with etomoxir alone” value (unstimulated (no AC) lipin-1 EKO macrophages) was “significant reduction in OCR” and the “OCR with etomoxir alone” value (unstimulated (no AC) lipin-1 KO macrophages) was “significant reduction in OCR”.
